One assay has as its target T1, Glucocorticoid receptor (Homo sapiens, UniProt P04150). Also: in other assays of this panel Not Active means under 50% inhibition at 10 µM.
T1 sequence (P04150 whole entry): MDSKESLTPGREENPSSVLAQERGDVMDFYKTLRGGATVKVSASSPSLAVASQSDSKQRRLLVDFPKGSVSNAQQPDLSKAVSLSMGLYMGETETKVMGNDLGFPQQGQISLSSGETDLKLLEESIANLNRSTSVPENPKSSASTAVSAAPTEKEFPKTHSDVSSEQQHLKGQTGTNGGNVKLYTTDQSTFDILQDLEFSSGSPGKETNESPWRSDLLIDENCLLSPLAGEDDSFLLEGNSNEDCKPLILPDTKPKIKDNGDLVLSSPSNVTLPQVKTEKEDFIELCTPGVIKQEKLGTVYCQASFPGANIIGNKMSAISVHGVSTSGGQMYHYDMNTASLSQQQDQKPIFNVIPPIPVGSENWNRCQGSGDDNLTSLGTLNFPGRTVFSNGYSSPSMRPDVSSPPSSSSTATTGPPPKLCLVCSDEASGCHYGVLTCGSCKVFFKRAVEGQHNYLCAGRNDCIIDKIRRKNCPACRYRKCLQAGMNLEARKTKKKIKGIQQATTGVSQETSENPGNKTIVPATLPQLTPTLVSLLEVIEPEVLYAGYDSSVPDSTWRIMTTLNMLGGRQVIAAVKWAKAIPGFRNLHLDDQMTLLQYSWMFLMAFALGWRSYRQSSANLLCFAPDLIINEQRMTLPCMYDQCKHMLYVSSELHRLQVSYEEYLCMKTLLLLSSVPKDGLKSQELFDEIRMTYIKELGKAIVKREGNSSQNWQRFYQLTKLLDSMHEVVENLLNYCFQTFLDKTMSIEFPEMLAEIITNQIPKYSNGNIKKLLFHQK
The settings on record: hela s3.

In another assay the target is Melanocortin receptor 5 (Homo sapiens, UniProt P33032). Format: cell membranes, HEK293, Membrane. The settings on record: hek293. Also: in other assays of this panel Not Active means under 50% inhibition at 10 µM.
Melanocortin receptor 5, sequence (P33032 whole entry): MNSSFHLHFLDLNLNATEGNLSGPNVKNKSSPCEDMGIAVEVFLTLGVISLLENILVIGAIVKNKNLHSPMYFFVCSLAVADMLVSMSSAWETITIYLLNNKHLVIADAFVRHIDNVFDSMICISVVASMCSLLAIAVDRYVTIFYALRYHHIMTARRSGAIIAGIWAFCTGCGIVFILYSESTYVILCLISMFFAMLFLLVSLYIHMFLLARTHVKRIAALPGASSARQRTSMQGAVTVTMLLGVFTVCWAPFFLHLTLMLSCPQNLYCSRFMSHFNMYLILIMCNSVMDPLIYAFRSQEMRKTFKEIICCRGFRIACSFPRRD
In assay [1] the target is Aldo-keto reductase family 1 member B1 (Rattus norvegicus, UniProt P07943). Briefly: biochemical. The class given is tissue-based, Lens of camera-type eye.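 Also: inhibition of aldose reductase enzyme activity, measured with DL-glyceraldehyde as the substrate; in other assays of this panel Not Active means under 50% inhibition at 10 µM.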
For assay [2], the target named is T2, Receptor-type tyrosine-protein phosphatase C (Homo sapiens, UniProt P08575).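 Also: inhibition of CD45 enzyme activity measured using DiFMUP as substrate; in other assays of this panel Not Active means under 50% inhibition at 10 µM.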
T2 sequence (P08575 whole entry): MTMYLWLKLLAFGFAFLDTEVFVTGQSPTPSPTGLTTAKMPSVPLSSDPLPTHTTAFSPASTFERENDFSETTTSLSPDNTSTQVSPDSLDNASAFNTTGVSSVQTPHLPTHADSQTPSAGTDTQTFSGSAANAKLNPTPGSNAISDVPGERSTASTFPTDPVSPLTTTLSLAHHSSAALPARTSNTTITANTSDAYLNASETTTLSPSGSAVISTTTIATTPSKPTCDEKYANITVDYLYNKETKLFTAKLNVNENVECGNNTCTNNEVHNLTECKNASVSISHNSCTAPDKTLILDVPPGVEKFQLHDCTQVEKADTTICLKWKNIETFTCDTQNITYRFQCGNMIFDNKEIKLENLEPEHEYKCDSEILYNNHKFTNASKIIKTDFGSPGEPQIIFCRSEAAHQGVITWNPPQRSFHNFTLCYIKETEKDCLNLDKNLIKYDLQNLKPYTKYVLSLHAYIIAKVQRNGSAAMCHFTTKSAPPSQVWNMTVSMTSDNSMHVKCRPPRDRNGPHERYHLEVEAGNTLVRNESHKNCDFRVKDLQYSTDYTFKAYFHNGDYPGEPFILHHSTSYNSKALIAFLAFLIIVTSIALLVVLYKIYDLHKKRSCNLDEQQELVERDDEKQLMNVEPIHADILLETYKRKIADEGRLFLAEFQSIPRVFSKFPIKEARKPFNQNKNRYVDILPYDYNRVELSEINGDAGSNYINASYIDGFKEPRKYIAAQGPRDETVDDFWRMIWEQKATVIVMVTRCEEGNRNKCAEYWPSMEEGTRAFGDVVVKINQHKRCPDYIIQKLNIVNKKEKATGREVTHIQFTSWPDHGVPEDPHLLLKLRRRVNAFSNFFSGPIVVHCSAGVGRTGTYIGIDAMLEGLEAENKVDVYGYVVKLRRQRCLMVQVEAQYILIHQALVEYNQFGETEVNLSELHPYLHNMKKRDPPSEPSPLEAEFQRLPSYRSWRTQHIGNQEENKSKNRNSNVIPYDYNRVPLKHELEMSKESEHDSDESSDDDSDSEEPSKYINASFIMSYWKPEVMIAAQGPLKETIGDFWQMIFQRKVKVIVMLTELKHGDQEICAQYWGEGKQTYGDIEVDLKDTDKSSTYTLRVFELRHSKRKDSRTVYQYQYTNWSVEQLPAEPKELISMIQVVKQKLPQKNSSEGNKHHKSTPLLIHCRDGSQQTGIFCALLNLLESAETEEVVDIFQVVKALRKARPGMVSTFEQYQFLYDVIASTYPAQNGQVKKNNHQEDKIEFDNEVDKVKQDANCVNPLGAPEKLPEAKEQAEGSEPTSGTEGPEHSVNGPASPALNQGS
On the set-up: species or system Escherichia coli.

The target of assay [3] is Mitogen-activated protein kinase 1 (Homo sapiens, UniProt P28482). Briefly: DRUGMATRIX: Protein Serine/Threonine Kinase, ERK2 enzyme inhibition (substrate: Myelin Basic Protein). Further details: species or system Escherichia coli. The settings on record: Not Active = under 50% inhibition at 10 µM.
Mitogen-activated protein kinase 1, sequence (P28482 whole entry): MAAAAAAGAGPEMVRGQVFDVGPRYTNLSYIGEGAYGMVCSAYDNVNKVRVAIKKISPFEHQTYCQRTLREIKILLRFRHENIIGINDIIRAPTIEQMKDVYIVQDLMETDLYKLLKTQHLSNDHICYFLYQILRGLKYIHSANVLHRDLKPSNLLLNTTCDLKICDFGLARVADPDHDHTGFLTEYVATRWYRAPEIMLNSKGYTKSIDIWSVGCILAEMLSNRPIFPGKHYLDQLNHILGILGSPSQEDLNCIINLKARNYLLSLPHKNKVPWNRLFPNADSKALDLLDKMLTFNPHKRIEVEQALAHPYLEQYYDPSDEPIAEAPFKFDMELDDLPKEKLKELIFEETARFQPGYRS
The target of another assay is D(3) dopamine receptor (Homo sapiens, UniProt P35462). The assay is described as follows: DRUGMATRIX: Dopamine D3 radioligand binding (ligand: [3H] Spiperone). Format: cell membranes, CHO, Membrane. The settings on record: for pIC50: read-out: IC50; for pKi: read-out: Ki.
D(3) dopamine receptor, sequence (P35462 whole entry): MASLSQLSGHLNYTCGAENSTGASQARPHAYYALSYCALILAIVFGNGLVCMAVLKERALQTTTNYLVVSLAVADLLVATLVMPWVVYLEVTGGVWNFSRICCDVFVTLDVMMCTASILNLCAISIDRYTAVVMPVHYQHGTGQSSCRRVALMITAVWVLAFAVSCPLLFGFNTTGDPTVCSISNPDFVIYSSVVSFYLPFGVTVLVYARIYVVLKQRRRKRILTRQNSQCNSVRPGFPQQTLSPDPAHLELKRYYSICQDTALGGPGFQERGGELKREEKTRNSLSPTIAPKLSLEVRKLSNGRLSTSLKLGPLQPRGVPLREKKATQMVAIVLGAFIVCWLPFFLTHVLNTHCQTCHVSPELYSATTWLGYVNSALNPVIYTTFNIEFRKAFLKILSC

Among the data in ChEMBL document CHEMBL1909046, “DrugMatrix in vitro pharmacology data” are IC50 and Ki values, retold here.

pIC50, pKi: −log10 of the molar value.

Regarding `CN(C)c1nc(N(C)C)nc(N(C)C)n1` [ALTRETAMINE], the IC50 entry (on Glucocorticoid receptor; on Melanocortin receptor 5; in assay [1]; in assay [2]; in assay [3]; at D(3) dopamine receptor (cho)) was “Not Active” each time.

For the molecule `CCn1cc(C(=O)O)c(=O)c2cc(F)c(N3CCNCC3)cc21` [NORFLOXACIN], the IC50 result (on Glucocorticoid receptor; at Melanocortin receptor 5; in assay [1]; in assay [2]; in assay [3]; on D(3) dopamine receptor (cho)) was “Not Active” in each case.

With `Clc1cccc(Cl)c1NC1=NCCN1` [CLONIDINE], the IC50 entry (against Glucocorticoid receptor; against Melanocortin receptor 5; in assay [1]; in assay [2]; in assay [3]; at D(3) dopamine receptor (cho)) was “Not Active” each time.

As for `C=C(C)C1(O)OC(=O)C=C1OC` (configuration not stated) [PENICILLIC ACID], the IC50 entry (at Glucocorticoid receptor; in assay [1]; in assay [2]; in assay [3]; on D(3) dopamine receptor (cho)) was “Not Active” each time. Besides, the Ki result on Melanocortin receptor 5 is on record as “Not Active”.

On to `C[C@H](CS)C(=O)N1CCC[C@H]1C(=O)O` [CAPTOPRIL], for which the IC50 entry (against Glucocorticoid receptor; on Melanocortin receptor 5; in assay [1]; in assay [2]; in assay [3]; at D(3) dopamine receptor (cho)) was “Not Active” throughout.

As for `C[C@H]1O[C@@H](O[C@H]2[C@@H](O)C[C@H](O[C@H]3[C@@H](O)C[C@H](O[C@H]4CC[C@@]5(C)[C@H](CC[C@@H]6[C@@H]5C[C@@H](O)[C@]5(C)[C@@H](C7=CC(=O)OC7)CC[C@]65O)C4)O[C@@H]3C)O[C@@H]2C)C[C@H](O)[C@@H]1O` [DIGOXIN], the IC50 entry (against Glucocorticoid receptor; against Melanocortin receptor 5; in assay [1]; in assay [2]; in assay [3]; on D(3) dopamine receptor (cho)) was “Not Active” in each case.

As to `CN(C)C(=O)Oc1cc(OC(=O)N(C)C)cc(C(O)CNC(C)(C)C)c1` (configuration not stated) [BAMBUTEROL], the IC50 result (at Glucocorticoid receptor; against Melanocortin receptor 5; in assay [1]; in assay [2]; in assay [3]; on D(3) dopamine receptor (cho)) was “Not Active” throughout.

Regarding `CC(C)[C@H]1C(=O)N2CCC[C@H]2[C@]2(O)O[C@](NC(=O)[C@@H]3C=C4c5cccc6[nH]cc(c56)C[C@H]4N(C)C3)(C(C)C)C(=O)N12` [ERGOCORNINE], the IC50 result (at Glucocorticoid receptor; against Melanocortin receptor 5; in assay [1]; in assay [2]; in assay [3]) was “Not Active” in each case. For the same molecule, the pIC50 (commonly −log10 of the IC50, conventionally taken in molar units) at D(3) dopamine receptor is 8.54. In addition, the pKi – broadly, −log10 of the Ki, conventionally taken in molar units – on D(3) dopamine receptor is 9.01.

`CCOC(=O)C1=C(COCCN)NC(C)=C(C(=O)OC)C1c1ccccc1Cl` (configuration not stated) [AMLODIPINE]: the IC50 entry (on Glucocorticoid receptor; on Melanocortin receptor 5; in assay [1]; in assay [2]; in assay [3]; on D(3) dopamine receptor (cho)) was “Not Active” in each case.

Turning to LEAD (II) ACETATE, the IC50 result (at Glucocorticoid receptor; against Melanocortin receptor 5; in assay [1]; in assay [2]; in assay [3]; on D(3) dopamine receptor (cho)) was “Not Active” throughout. In addition, the Ki entry (on Glucocorticoid receptor; at Melanocortin receptor 5; in assay [1]; in assay [2]; in assay [3]; on D(3) dopamine receptor (cho)) was “Not Active” each time.

`CC(O)CO` (configuration not stated) [PROPYLENE GLYCOL]: the IC50 result (on Glucocorticoid receptor; against Melanocortin receptor 5; in assay [1]; in assay [2]; in assay [3]; on D(3) dopamine receptor (cho)) was “Not Active” throughout.

As for `CCC1(c2ccc(N)cc2)CCC(=O)NC1=O` (configuration not stated) [AMINOGLUTETHIMIDE], the IC50 entry (against Glucocorticoid receptor; against Melanocortin receptor 5; in assay [1]; in assay [2]; in assay [3]; at D(3) dopamine receptor (cho)) was “Not Active” in each case.

On to `Cc1ccccc1N1C(=O)c2cc(S(N)(=O)=O)c(Cl)cc2NC1C` (configuration not stated) [METOLAZONE], for which the IC50 entry (on Glucocorticoid receptor; against Melanocortin receptor 5; in assay [1]; in assay [2]; in assay [3]; at D(3) dopamine receptor (cho)) was “Not Active” in each case.

With `C1CCC(C(CC2CCCCN2)C2CCCCC2)CC1` (configuration not stated) [PERHEXILINE], the IC50 result (at Glucocorticoid receptor; at Melanocortin receptor 5; in assay [1]; in assay [2]; in assay [3]; on D(3) dopamine receptor (cho)) was “Not Active” throughout.

As to `N=C(N)NCCN1CCCCCCC1` [GUANETHIDINE], the IC50 result (on Glucocorticoid receptor; on Melanocortin receptor 5; in assay [1]; in assay [2]; in assay [3]; at D(3) dopamine receptor (cho)) was “Not Active” throughout.

As for `CC(C)CN(C[C@@H](O)[C@H](Cc1ccccc1)NC(=O)O[C@H]1CCOC1)S(=O)(=O)c1ccc(N)cc1`, the IC50 result (on Glucocorticoid receptor; on Melanocortin receptor 5; in assay [1]; in assay [2]; in assay [3]; at D(3) dopamine receptor (cho)) was “Not Active” each time.

As to `O=c1[nH]c(=O)n([C@H]2C[C@H](O)[C@@H](CO)O2)cc1I` [IDOXURIDINE], the IC50 result (at Glucocorticoid receptor; against Melanocortin receptor 5; in assay [1]; in assay [2]; in assay [3]; on D(3) dopamine receptor (cho)) was “Not Active” throughout.

Take `C[C@H](CCC(=O)O)[C@H]1CC[C@H]2[C@@H]3[C@H](O)C[C@@H]4C[C@H](O)CC[C@]4(C)[C@H]3C[C@H](O)[C@]12C` [CHOLIC ACID]: the IC50 entry (on Glucocorticoid receptor; on Melanocortin receptor 5; in assay [1]; in assay [2]; in assay [3]; on D(3) dopamine receptor (cho)) was “Not Active” each time.

Turning to `O=C(CCCN1CC=C(n2c(=O)[nH]c3ccccc32)CC1)c1ccc(F)cc1` [DROPERIDOL], the IC50 entry (against Glucocorticoid receptor; against Melanocortin receptor 5; in assay [1]; in assay [2]; in assay [3]) was “Not Active” throughout. Also, the pIC50 on D(3) dopamine receptor was 8.56. Further, on D(3) dopamine receptor, the pKi is 9.03.
